Test results from BigSolDB 2.1.

SMILES: O=C(Nc1ccccc1)Nc1ccnc(Cl)c1
- solubility (mole fraction) (in acetone, 278.15 K): 0.03
- solubility (mole fraction) (in acetone, 283.15 K): 0.0317
- solubility (mole fraction) (in acetone, 288.15 K): 0.0346
- solubility (mole fraction) (in acetone, 293.15 K): 0.0384
- solubility (mole fraction) (in acetone, 298.15 K): 0.042
- solubility (mole fraction) (in acetone, 303.15 K): 0.0456
- solubility (mole fraction) (in acetone, 308.15 K): 0.0488
- solubility (mole fraction) (in acetone, 313.15 K): 0.0544
- solubility (mole fraction) (in acetone, 318.15 K): 0.0606
- solubility (mole fraction) (in acetone, 323.15 K): 0.0672
- solubility (mole fraction) (in ethanol, 278.15 K): 0.0171
- solubility (mole fraction) (in ethanol, 283.15 K): 0.0193
- solubility (mole fraction) (in ethanol, 288.15 K): 0.0218
- solubility (mole fraction) (in ethanol, 293.15 K): 0.0248
- solubility (mole fraction) (in ethanol, 298.15 K): 0.0282
- solubility (mole fraction) (in ethanol, 303.15 K): 0.0325
- solubility (mole fraction) (in ethanol, 308.15 K): 0.0373
- solubility (mole fraction) (in ethanol, 313.15 K): 0.043
- solubility (mole fraction) (in ethanol, 318.15 K): 0.0495
- solubility (mole fraction) (in ethanol, 323.15 K): 0.0563
- solubility (mole fraction) (in methanol, 278.15 K): 0.0119
- solubility (mole fraction) (in methanol, 283.15 K): 0.0135
- solubility (mole fraction) (in methanol, 288.15 K): 0.0155
- solubility (mole fraction) (in methanol, 293.15 K): 0.0183
- solubility (mole fraction) (in methanol, 298.15 K): 0.0219
- solubility (mole fraction) (in methanol, 303.15 K): 0.0257
- solubility (mole fraction) (in methanol, 308.15 K): 0.0305
- solubility (mole fraction) (in methanol, 313.15 K): 0.0366
- solubility (mole fraction) (in methanol, 318.15 K): 0.0447
- solubility (mole fraction) (in methanol, 323.15 K): 0.0541
- solubility (mole fraction) (in n-propanol, 278.15 K): 0.0171
- solubility (mole fraction) (in n-propanol, 283.15 K): 0.0198
- solubility (mole fraction) (in n-propanol, 288.15 K): 0.0221
- solubility (mole fraction) (in n-propanol, 293.15 K): 0.0257
- solubility (mole fraction) (in n-propanol, 298.15 K): 0.0295
- solubility (mole fraction) (in n-propanol, 303.15 K): 0.034
- solubility (mole fraction) (in n-propanol, 308.15 K): 0.0385
- solubility (mole fraction) (in n-propanol, 313.15 K): 0.0453
- solubility (mole fraction) (in n-propanol, 318.15 K): 0.0515
- solubility (mole fraction) (in n-propanol, 323.15 K): 0.0582
